Data reported in patent US8822440B2, “Inhibiting cyclin D polypeptides” (Mayo Foundation for Medical Education and Research, priority 2006, dated 2014).
Entries after “also recorded” stand apart in the source; their conditions may differ.

What was measured:
[1] = system: CCND2 promoter; experiment: CCND2 promoter-luciferase transactivation assay in NIH3T3 cells with or without c-maf; assay type: cell-based, mouse
Description: Using this assay, Lopac (n=1280), Prestwick (n=1120), and Spectrum (n=2000) libraries of drugs and natural compounds were screened. In a parallel MTS assay, the effect of each compound on 3T3 viability was determined, allowing exclusion of compounds that caused secondary suppression of CCND2 due to non-specific cytotoxicity. […] These included monensin, patulin, β-lapachone, camptothecin, dihydrogambogic acid, gentian violet, thapsigargin, brefeldin A, pristimerin, and kinetin riboside.
Full-length c-maf cDNA was subcloned into an IRES-GFP MIEV retroviral vector and introduced into NIH3T3 cells by infection. Stable clones expressing GFP and c-maf were selected by flow cytometry and immunoblotting, respectively. The promoter of human cyclin D2 (−894 to −4; Brooks et al., J. Biol. Chem., 271, 9090-9 (1996)), containing c-maf responsive element sequence (MARE), was cloned from DNA from HeLa cells and inserted into the pGLbasic firefly luciferase vector (Promega, Madison, Wis.) immediately upstream of the luciferase gene. This construct was co-transfected with pcDNA3 (containing a neomycin resistance gene) into both NIH3T3 wild type cells and NIH3T3 cells stably over-expressing c-maf-IRES-GFP. Cells stably expressing c-maf, GFP, and luciferase were selected.
NIH3T3 cells stably expressing c-maf and the CCND2 promoter driving luciferase (13,000 cells per well) were plated in 96-well plates by a Biomek FX liquid handler (Beckman, Fullerton, Calif.). After the cells had adhered, they were treated with aliquots of molecules from LOPAC (Sigma, St. Louis, Mo.), Prestwick (Prestwick Chemical Inc, Illkirch, France) or Spectrum (Microsource Discovery Systems, Gaylordsville, Conn.) libraries of off-patent drugs and chemicals at a final concentration of ˜5 μM and <0.1% DMSO. Cells were incubated with compounds at 37° C. for 16 hours.
Luciferase assay. Luciferase activity was assessed according to the manufacturer's instructions (Promega, Madison, Wis.). Briefly, the cell culture medium was removed using an EMBLA plate washer (Molecular Devices, X) and Glo Lysis buffer (Promega) was added by robot. After a 10-minute incubation, an equal volume of Bright-Glo Luciferase substrate (Promega) was added, and luminescence signal was detected with a 96-well Luminoskan luminescence plate reader (Thermo Labsystem, Waltham, Mass.) using a 5 second integration.
Studies of kinetin riboside using 3T3-D2-luc cells. To examine CCND2 suppression induced by kinetin riboside, the reporter cells were exposed to kinetin riboside in combination with other drugs (all purchased from Sigma, St. Loius, Mo.) that influence CCND2 transcription or inhibit nucleoside transport or phosphorylation. NIH3T3 cells expressing the CCND2 promoter driving luciferase were incubated with kinetin riboside or vehicle control +/− forskolin, 4-(3-butoxy-4-methoxybenzyl)imidazolidin-2-one (BMBI), cantharadin, S-(4-Nitrobenzyl)-6-thioinosine (NBTI), or A-134974, as specified at 5 μM concentration for 16 hours at 37° C. […] Forskolin is a cell-permeable diterpenoid that activates adenylate cyclase resulting in increased cAMP concentration. BMBI (Sigma B8279) is an inhibitor of cAMP phosphodiesterase that also causes accumulation of cAMP. Cantharadin (C7632) is an inhibitor of protein phosphatase 2A and, from the library screen, mediates induction of CCND2. NBTI (Sigma N2255) is a potent adenosine uptake inhibitor, and A-134974 (Sigma A2846) is a selective inhibitor of adenosine kinase.
In an optimized automated assay, NIH3T3 cells over-expressing c-maf and the human cyclin D2 promoter driving luc were plated in 96-well plates by robot and following adhesion were treated for 16 hours with compounds at a final concentration of ˜5 μM and <0.1% DMSO. As a control, cells were treated with buffer alone. […] Thus, each compound from the library was tested in at least two assays—luciferase for CCND2 activity and MTS for viability. The coefficient of variance (CV) of the assay was <10%.

[2] = Aqueous solubility; assay type: physicochemical
[3] = system: caspase 9; experiment: Immunoblot of caspase 9 cleavage in HMCL; assay type: cell-based, human; settings: HMCL and CD138+ patient myeloma cells
Description: Immunoblotting. Cytosolic extracts were prepared from HMCL or purified patient CD138^+ myeloma cells following exposure to kinetin riboside. Cells were washed with cold PBS, resuspended in cold RIPA buffer (5×10^6 cells/100 μL) containing fresh protease and phosphatase inhibitors (Santa Cruz Biotechnology, Santa Cruz, Calif.) and incubated on ice for 30 minutes with gentle mixing. The supernatant was repossessed following high speed centrifugation, and protein concentrations were determined by the Bradford assay. Immunoblot assays were performed as described elsewhere (Krajewski et al., Anal. Biochem., 236:221-228 (1996)). Briefly, equal amounts of protein were separated by SDS-PAGE and transferred to a PVDF nitrocellulose membrane using a semi-dry apparatus. Membranes were blocked using 5% skim milk in Tris buffered saline and probed with monoclonal mouse anti-cyclin D1 (DCS-6, Biosource, Camarillo, Calif.), polyclonal rabbit anti-cyclin D2 (#2924, Cell Signalling Technology), monoclonal mouse anti-cyclin D3 (DCS-22, BioSource), polyclonal rabbit anti-c-Maf (M-153, Santa Cruz), polyclonal rabbit anti-Cleaved Caspase 9 (Asp315) (Cell Signaling Technology), monoclonal mouse anti-β-actin (Cell Signaling Technology) and/or monoclonal anti-a-tubulin (B-7)(Santa Cruz Biotechnology, Santa Cruz, Calif.). […]

[4] = system: HMCL; experiment: Cell cycle profiling of HMCL by flow cytometry; assay type: cell-based, human
Description: Cell cycle profiling. HMCL were incubated with drug or vehicle as indicated, washed and resuspended in 1 mL PBS. Ice cold ethanol was added dropwise to 75% with regular mixing, and suspensions were incubated at −20° C. for 1 hour. Cells were washed again with PBS and resuspended in 0.1 mL RNAse A (100 μg/mL) at room temperature for 5-10 minutes. Propidium iodide (200 μL×100 μg/mL) was added immediately prior to analysis by flow cytometry. Cellular aggregates were excluded using CellQuest Doublet Discriminator Module, and cell cycle profile was determined using ModFit LT Mac 3.1 SP2 (Verity Software House, TopSham, Me.).

SMILES: OC[C@H]1O[C@@H](n2cnc3c(NCc4ccco4)ncnc32)[C@H](O)[C@@H]1O [kinetin riboside, N6-Furfuryladenosine]
- time course of suppression of CCND2-driven luciferase ([1]; NIH3T3): rapid suppression of CCND2 transactivation
- suppression of CCND2 promoter in absence or presence of c-maf ([1]; NIH3T3 CCND2-luc with or without c-maf): c-maf independent specific suppression of the CCND2 promoter
- effect on BMBI-induced CCND2 transactivation ([1]; co-incubation, 5 μM, 16 hours): effectively blocked
- effect on Forskolin-induced CCND2 transactivation ([1]; co-incubation, 5 μM, 16 hours): blocked
- effect on cantharadin-induced CCND2 transactivation ([1]; co-incubation, 5 μM, 16 hours): abolished
- identified as putative inhibitor of CCND2 transactivation (screen hit) ([1]; ~5 μM, 16 hours, hit = 50% or more reduction in luciferase relative to cell viability): putative CCND2 inhibitors; also recorded: putative suppressors of CCND2
- aqueous solubility [2]: limited aqueous solubility at high concentration
- time to caspase-9 cleavage [3]: ≤ 16 h
- cell cycle profile ([4]; H929 and U266, 10 μM, 20 hours): cell cycle arrest at G0/G1
- fall in proportion of cells entering S-phase ([4]; all HMCL tested, 10 μM, within 20 hours): 50-70%
